How the values were obtained:
[1] = molecular target: Vascular endothelial growth factor receptor 1 (Homo sapiens, UniProt P17948); format: cell-based; settings: huvec; further: in other assays of this panel Not Active means under 50% inhibition at 10 µM
[2] = DRUGMATRIX: Imidazoline I2, Central radioligand binding (ligand: [3H] Idazoxan); format: cell membranes, Rattus norvegicus, Wistar, Cerebral cortex, Membrane; settings: Not Active = under 50% inhibition at 10 µM
Glucocorticoid receptor = molecular target: T1, Glucocorticoid receptor (Homo sapiens, UniProt P04150); settings: hela s3; further: in other assays of this panel Not Active means under 50% inhibition at 10 µM
T1 sequence (P04150 whole entry): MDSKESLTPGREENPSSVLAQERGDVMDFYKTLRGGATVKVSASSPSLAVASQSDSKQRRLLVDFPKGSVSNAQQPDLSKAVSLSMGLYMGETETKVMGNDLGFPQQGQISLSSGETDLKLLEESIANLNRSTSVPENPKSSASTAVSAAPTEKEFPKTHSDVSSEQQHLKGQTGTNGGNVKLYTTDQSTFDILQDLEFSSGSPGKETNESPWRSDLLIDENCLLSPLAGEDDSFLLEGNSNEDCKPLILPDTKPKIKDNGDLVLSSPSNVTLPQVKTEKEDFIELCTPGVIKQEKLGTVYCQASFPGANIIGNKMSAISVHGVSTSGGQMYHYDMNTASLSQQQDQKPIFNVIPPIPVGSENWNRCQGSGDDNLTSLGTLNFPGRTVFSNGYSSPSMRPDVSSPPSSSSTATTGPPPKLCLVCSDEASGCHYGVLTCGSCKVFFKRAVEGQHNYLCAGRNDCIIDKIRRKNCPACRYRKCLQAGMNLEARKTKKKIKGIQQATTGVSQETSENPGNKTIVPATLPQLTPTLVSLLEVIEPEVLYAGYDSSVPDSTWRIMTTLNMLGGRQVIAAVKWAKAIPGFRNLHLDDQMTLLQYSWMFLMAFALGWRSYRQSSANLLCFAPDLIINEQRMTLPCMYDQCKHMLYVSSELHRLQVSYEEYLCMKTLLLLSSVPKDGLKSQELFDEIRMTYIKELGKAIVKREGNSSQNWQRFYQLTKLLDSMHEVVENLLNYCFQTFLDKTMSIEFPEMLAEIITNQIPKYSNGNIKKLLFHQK

[3] = molecular target: T2, Alpha-1D adrenergic receptor (Homo sapiens, UniProt P25100); format: cell membranes, HEK293, Membrane; further: in other assays of this panel Not Active means under 50% inhibition at 10 µM
T2 sequence (P25100 whole entry): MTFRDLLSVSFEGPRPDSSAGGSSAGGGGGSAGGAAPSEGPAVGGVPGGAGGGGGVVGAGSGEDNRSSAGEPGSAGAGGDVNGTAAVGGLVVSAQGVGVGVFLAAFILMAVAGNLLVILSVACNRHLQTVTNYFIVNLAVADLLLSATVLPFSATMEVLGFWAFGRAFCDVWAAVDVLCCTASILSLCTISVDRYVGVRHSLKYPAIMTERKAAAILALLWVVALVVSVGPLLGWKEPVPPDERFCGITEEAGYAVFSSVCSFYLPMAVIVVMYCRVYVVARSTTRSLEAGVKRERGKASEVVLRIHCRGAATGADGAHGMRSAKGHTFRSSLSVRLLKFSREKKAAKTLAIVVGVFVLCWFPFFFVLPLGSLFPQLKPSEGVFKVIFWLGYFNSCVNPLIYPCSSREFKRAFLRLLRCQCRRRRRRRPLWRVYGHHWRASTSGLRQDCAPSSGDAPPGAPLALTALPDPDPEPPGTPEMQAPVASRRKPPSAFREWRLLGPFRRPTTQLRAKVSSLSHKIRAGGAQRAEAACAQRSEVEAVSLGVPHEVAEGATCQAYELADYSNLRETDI

[4] = molecular target: Sodium-dependent dopamine transporter (Homo sapiens, UniProt Q01959); test: DRUGMATRIX: Dopamine Transporter radioligand binding (ligand: [125I] RTI-55); format: cell membranes, CHO-K1, Membrane; settings: Not Active = under 50% inhibition at 10 µM
Sequence of Sodium-dependent dopamine transporter (Q01959 whole entry): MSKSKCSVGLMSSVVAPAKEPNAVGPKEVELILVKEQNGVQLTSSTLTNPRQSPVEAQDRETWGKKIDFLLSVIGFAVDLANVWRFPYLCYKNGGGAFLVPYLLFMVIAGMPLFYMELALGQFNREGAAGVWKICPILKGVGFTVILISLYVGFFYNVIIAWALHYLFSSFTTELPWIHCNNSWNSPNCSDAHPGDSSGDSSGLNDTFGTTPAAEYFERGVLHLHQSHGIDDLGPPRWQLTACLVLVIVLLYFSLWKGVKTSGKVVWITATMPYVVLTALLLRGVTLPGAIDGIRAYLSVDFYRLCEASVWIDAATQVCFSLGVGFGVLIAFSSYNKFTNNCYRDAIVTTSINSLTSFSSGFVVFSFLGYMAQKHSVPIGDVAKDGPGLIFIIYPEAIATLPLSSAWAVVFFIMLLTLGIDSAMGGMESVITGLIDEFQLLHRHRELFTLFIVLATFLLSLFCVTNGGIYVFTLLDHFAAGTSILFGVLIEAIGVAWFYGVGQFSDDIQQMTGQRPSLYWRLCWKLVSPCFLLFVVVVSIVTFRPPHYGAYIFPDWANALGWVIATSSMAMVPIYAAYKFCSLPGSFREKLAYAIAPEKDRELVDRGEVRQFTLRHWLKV

Nitric oxide synthase 1 = Nitric oxide synthase 1 (Rattus norvegicus, UniProt P29476); format: tissue-based, Cerebellum; further: in other assays of this panel Not Active means under 50% inhibition at 10 µM
Sequence of Nitric oxide synthase 1 (P29476 whole entry): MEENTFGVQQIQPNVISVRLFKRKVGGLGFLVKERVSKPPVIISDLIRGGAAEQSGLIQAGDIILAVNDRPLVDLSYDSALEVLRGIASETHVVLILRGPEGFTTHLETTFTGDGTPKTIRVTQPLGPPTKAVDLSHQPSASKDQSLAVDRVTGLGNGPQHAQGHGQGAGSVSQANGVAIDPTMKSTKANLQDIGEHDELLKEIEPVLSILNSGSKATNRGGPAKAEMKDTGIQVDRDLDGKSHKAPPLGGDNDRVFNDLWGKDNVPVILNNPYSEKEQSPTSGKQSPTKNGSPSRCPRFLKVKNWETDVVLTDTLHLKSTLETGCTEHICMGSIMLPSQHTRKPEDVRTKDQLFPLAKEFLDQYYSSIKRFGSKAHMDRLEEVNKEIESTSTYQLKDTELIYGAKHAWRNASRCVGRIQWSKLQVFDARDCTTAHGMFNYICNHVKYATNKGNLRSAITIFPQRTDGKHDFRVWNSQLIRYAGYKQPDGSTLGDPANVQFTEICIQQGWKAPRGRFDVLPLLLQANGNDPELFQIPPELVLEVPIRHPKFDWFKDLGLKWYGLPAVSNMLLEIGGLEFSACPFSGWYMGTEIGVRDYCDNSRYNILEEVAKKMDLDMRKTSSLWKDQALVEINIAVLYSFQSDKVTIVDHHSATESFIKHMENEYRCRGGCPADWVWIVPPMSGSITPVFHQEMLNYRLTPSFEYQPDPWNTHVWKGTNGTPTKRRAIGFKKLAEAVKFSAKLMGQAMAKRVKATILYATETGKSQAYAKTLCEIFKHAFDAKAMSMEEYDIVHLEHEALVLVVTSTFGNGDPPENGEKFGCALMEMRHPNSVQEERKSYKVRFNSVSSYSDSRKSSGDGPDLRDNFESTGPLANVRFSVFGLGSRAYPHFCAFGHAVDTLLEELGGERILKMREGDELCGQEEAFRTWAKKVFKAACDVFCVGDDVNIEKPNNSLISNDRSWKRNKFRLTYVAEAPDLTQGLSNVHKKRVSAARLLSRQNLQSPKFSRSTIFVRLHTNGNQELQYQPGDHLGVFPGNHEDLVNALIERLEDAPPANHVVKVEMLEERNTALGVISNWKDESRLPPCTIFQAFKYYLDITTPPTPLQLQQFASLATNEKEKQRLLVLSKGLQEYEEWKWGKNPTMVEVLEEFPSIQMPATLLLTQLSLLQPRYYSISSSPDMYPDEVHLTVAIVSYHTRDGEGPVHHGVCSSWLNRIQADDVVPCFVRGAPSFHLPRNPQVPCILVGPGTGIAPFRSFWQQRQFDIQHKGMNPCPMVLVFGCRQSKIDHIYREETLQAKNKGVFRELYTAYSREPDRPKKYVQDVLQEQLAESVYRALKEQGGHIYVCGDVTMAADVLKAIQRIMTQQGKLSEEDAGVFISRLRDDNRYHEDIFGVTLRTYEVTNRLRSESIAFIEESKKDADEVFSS

Sequence of Vascular endothelial growth factor receptor 1 (P17948 whole entry): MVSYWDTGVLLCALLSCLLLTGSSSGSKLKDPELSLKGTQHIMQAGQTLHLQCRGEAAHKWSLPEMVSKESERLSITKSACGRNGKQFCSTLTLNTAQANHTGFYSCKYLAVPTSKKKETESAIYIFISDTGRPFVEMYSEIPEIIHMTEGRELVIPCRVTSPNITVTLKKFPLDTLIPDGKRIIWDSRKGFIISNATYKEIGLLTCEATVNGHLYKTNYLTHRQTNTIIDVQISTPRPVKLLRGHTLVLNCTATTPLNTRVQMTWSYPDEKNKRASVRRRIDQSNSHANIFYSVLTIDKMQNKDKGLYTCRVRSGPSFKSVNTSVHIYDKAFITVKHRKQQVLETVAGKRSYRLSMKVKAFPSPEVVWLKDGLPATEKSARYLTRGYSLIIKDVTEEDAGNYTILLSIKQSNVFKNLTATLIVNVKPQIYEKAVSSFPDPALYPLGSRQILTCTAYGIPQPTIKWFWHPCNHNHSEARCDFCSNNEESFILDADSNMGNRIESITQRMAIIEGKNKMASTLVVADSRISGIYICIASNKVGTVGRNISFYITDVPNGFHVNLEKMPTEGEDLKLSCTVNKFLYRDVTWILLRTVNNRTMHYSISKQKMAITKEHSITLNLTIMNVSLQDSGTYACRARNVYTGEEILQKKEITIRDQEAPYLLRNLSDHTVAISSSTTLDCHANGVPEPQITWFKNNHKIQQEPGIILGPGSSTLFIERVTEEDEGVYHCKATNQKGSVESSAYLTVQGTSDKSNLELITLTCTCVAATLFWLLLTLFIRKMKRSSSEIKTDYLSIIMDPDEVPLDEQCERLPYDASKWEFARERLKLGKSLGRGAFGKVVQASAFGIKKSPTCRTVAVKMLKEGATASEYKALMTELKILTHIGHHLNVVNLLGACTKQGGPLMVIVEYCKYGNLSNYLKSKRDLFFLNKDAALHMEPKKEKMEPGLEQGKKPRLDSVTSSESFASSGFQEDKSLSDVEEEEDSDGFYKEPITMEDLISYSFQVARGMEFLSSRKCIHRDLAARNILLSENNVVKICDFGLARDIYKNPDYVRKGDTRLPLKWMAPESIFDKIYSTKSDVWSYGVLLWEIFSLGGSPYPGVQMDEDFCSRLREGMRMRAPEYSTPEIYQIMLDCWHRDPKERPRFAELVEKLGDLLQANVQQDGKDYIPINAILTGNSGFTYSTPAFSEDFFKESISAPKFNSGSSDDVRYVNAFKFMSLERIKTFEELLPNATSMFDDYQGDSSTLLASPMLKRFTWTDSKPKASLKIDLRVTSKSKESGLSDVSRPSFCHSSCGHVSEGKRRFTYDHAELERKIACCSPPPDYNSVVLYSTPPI

Molecule | IC50 [1] | IC50 [2] | Ki [2] | IC50 (Glucocorticoid receptor) | IC50 ([3]; hek293) | IC50 ([4]; cho-k1) | IC50 (Nitric oxide synthase 1) | Ki [1] | Ki (Glucocorticoid receptor) | Ki ([3]; hek293) | Ki ([4]; cho-k1) | Ki (Nitric oxide synthase 1) | IC50 ([4]; read-out: IC50) | Ki ([4]; read-out: Ki) | IC50 ([3]; read-out: IC50) | Ki ([3]; read-out: Ki)
CC(=O)[C@]1(O)Cc2c(O)c3c(c(O)c2[C@@H](O[C@H]2C[C@H](N)[C@H](O)[C@H](C)O2)C1)C(=O)c1ccccc1C3=O [IDARUBICIN] | Not Active | Not Active | Not Active | Not Active | Not Active | Not Active | Not Active | – | – | – | – | – | – | – | – | –
NC(=O)CN1CCCC1=O | Not Active | Not Active | Not Active | Not Active | Not Active | Not Active | Not Active | – | – | – | – | – | – | – | – | –
CO[C@H]1O[C@@H]2O[C@@]3(C)CC[C@H]4[C@H](C)CC[C@@H]([C@H]1C)[C@@]24OO3 | Not Active | Not Active | Not Active | Not Active | Not Active | Not Active | Not Active | – | – | – | – | – | – | – | – | –
CC12CCC(CC1)C(C)(C)O2 [EUCALYPTOL] | Not Active | Not Active | Not Active | Not Active | Not Active | Not Active | Not Active | – | – | – | – | – | – | – | – | –
Oc1ncnc2[nH]ncc12 [ALLOPURINOL] | Not Active | Not Active | Not Active | Not Active | Not Active | Not Active | Not Active | – | – | – | – | – | – | – | – | –
NCC(CC(=O)O)c1ccc(Cl)cc1 (stereo not given) [BACLOFEN] | Not Active | Not Active | Not Active | Not Active | Not Active | Not Active | Not Active | – | – | – | – | – | – | – | – | –
O=C1CN(/N=C/c2ccc([N+](=O)[O-])o2)C(=O)N1 [NITROFURANTOIN] | Not Active | Not Active | Not Active | Not Active | Not Active | Not Active | Not Active | – | – | – | – | – | – | – | – | –
CC12CCC(CC1=O)C2(C)C (stereo not given) [CAMPHOR] | Not Active | Not Active | Not Active | Not Active | Not Active | Not Active | Not Active | – | – | – | – | – | – | – | – | –
Cc1c(N)nc([C@H](CC(N)=O)NC[C@H](N)C(N)=O)nc1C(=O)N[C@H](C(=O)N[C@H](C)[C@@H](O)[C@H](C)C(=O)N[C@H](C(=O)NCCc1nc(-c2nc(C(=O)NCCC[S+](C)C)cs2)cs1)[C@@H](C)O)[C@@H](O[C@@H]1O[C@@H](CO)[C@@H](O)[C@H](O)[C@@H]1O[C@H]1O[C@H](CO)[C@@H](O)[C@H](OC(N)=O)[C@@H]1O)c1c[nH]cn1.[Br-] [BLEOMYCIN A2] | Not Active | Not Active | Not Active | Not Active | Not Active | Not Active | Not Active | – | – | – | – | – | – | – | – | –
CN(Cc1cc(Br)cc(Br)c1N)C1CCCCC1 [BROMHEXINE] | Not Active | Not Active | Not Active | Not Active | Not Active | Not Active | Not Active | – | – | – | – | – | – | – | – | –
COPPER(II) OXIDE | Not Active | Not Active | Not Active | Not Active | Not Active | Not Active | Not Active | Not Active | Not Active | Not Active | Not Active | Not Active | – | – | – | –
NC(N)=Nc1nc(CSCCC(N)=NS(N)(=O)=O)cs1 [FAMOTIDINE] | Not Active | Not Active | Not Active | Not Active | Not Active | Not Active | Not Active | – | – | – | – | – | – | – | – | –
c1ccc2sc(SSc3nc4ccccc4s3)nc2c1 [BENZOTHIAZYL DISULFIDE] | Not Active | Not Active | Not Active | Not Active | Not Active | – | Not Active | – | – | – | – | – | 245 nM | 194 nM | – | –
CC(=O)Nc1ccc2c(c1)Cc1ccccc1-2 [2-ACETYLAMINOFLUORENE] | Not Active | Not Active | Not Active | Not Active | Not Active | Not Active | Not Active | – | – | – | – | – | – | – | – | –
c1ccc(Cn2ccnc2)cc1 | Not Active | Not Active | Not Active | Not Active | Not Active | Not Active | Not Active | – | – | – | – | – | – | – | – | –
Nc1ccc(Cc2ccc(N)cc2)cc1 | Not Active | Not Active | Not Active | Not Active | Not Active | Not Active | Not Active | – | – | – | – | – | – | – | – | –
CC(N)Cc1c[nH]c2ccc(OCc3cccs3)cc12 (stereo not given) [BW-723C86] | Not Active | Not Active | Not Active | Not Active | Not Active | – | Not Active | – | – | – | – | – | 2680 nM | 2130 nM | – | –
CCO [ALCOHOL] | Not Active | Not Active | Not Active | Not Active | Not Active | Not Active | Not Active | – | – | – | – | – | – | – | – | –
O=C(O)CNCP(=O)(O)O [GLYPHOSATE] | Not Active | Not Active | Not Active | Not Active | Not Active | Not Active | Not Active | – | – | – | – | – | – | – | – | –
Nc1nc(N)c2nc(CNc3ccc(C(=O)N[C@@H](CCC(=O)O)C(=O)O)cc3)cnc2n1 [AMINOPTERIN] | Not Active | Not Active | Not Active | Not Active | Not Active | Not Active | Not Active | – | – | – | – | – | – | – | – | –
CC(C)Cn1cnc2c(N)nc3ccccc3c21 [IMIQUIMOD] | Not Active | Not Active | Not Active | Not Active | – | Not Active | Not Active | – | – | – | – | – | – | – | 2620 nM | 1290 nM
C[N+](C)(C)CCOP(=O)([O-])OC[C@H](O)CO | Not Active | Not Active | Not Active | Not Active | Not Active | Not Active | Not Active | – | – | – | – | – | – | – | – | –
OC[C@H]1O[C@@H]2O[C@H]3[C@H](O)[C@@H](O)[C@@H](O[C@H]4[C@H](O)[C@@H](O)[C@@H](O[C@H]5[C@H](O)[C@@H](O)[C@@H](O[C@H]6[C@H](O)[C@@H](O)[C@@H](O[C@H]7[C@H](O)[C@@H](O)[C@@H](O[C@H]8[C@H](O)[C@@H](O)[C@@H](O[C@H]1[C@H](O)[C@H]2O)O[C@@H]8CO)O[C@@H]7CO)O[C@@H]6CO)O[C@@H]5CO)O[C@@H]4CO)O[C@@H]3CO [BETADEX] | Not Active | Not Active | Not Active | Not Active | Not Active | Not Active | Not Active | – | – | – | – | – | – | – | – | –
CARBOXYMETHYLCELLULOSE | Not Active | Not Active | Not Active | Not Active | Not Active | Not Active | Not Active | Not Active | Not Active | Not Active | Not Active | Not Active | – | – | – | –
COc1ccc(C[C@H](N)C(=O)N[C@H]2[C@@H](O)[C@H](n3cnc4c(N(C)C)ncnc43)O[C@@H]2CO)cc1 [PUROMYCIN] | Not Active | Not Active | Not Active | Not Active | Not Active | Not Active | Not Active | – | – | – | – | – | – | – | – | –
C[C@H](C(=O)O)c1ccc2oc(-c3ccc(F)cc3)nc2c1 [FLUNOXAPROFEN] | Not Active | Not Active | Not Active | Not Active | Not Active | Not Active | Not Active | – | – | – | – | – | – | – | – | –
